The results in this text go back to PMC6449304, “Novel parameter describing restriction endonucleases: Secondary-Cognate-Specificity and chemical stimulation of TsoI leading to substrate specificity change” (Applied Microbiology and Biotechnology, 2019).

For this experiment, the target named is T1, TsoI (Thermus scotoductus, UniProt T1RQY5).
T1 construct: gene tsoIRM; native enzyme purified from Thermus scotoductus RFL4; bifunctional REase-MTase, TspDTI subfamily
T1 sequence (T1RQY5 1-1116): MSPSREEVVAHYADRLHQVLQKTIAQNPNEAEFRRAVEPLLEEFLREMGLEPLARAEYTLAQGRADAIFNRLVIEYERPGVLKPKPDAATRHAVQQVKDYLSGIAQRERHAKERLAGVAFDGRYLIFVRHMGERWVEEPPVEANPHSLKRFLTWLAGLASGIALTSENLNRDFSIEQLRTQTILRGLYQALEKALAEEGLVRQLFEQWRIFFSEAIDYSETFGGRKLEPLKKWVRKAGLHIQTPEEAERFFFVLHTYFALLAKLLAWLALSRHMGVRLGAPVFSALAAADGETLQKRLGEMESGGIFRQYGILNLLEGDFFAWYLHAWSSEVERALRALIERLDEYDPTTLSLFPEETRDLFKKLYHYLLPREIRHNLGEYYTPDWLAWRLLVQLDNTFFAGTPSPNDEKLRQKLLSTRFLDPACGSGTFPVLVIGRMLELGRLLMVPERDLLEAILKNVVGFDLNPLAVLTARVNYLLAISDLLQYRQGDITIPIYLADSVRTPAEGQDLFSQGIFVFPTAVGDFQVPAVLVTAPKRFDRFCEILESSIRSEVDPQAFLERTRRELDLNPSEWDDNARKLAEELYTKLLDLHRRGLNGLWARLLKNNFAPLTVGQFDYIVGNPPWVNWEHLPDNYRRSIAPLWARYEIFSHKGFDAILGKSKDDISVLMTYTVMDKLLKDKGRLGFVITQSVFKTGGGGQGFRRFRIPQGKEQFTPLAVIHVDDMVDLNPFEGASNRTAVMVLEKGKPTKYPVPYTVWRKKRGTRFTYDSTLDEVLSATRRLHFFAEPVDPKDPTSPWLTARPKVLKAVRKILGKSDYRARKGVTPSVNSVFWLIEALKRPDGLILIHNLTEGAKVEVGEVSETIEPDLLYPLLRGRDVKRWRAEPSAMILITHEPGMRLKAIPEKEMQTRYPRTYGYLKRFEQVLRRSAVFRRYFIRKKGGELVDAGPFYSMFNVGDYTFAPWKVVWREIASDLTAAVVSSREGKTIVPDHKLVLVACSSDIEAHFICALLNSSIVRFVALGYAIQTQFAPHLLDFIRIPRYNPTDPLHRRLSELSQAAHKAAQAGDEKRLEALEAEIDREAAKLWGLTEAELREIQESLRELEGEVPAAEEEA
Briefly: DNA cleavage assay, agarose gel (stimulation of secondary-cognate-specificity cleavage). The experiment is classed as biochemical. Particulars: pUC19 supercoiled DNA; 500 uM compound (31.25-500 uM tested); 10 mM Tris-HCl pH 7.5, 10 mM MgCl2, 50 mM NaCl, 55 °C, 1 h; activator, presumed SAM-binding motif.

For `Nc1ncnc2c1ncn2[C@@H]1O[C@H](CSC[C@H](N)C(=O)O)[C@@H](O)[C@H]1O` [SAC, S-adenosyl-L-cysteine], the “DNA cleavage assay, agarose gel (stimulation of secondary-cognate-specificity cl)” value is recorded as “efficiency of TsoI SCS cleavage is significantly stimulated by high concentrations of SAC”.
